Data on two compounds can be found in article PMC11148080, “Ru(II)-based complexes containing 2-thiouracil derivatives suppress liver cancer stem cells by targeting NF-κB and Akt/mTOR signaling” (Cell Death Discovery, 2024).

Common to all, as to assay type: cell-based, human
Assay [1] has as its system HepG2 tumorspheres. Briefly: HepG2 tumorspheres. Conditions: for HepG2 tumorsphere growth: 3D tumorspheres; for cell death in HepG2 tumorspheres (AO/PI): 48 h, 10 μM complex 1, 5 μM complex 2. As for the experimental part: HepG2 cells were seeded at a low cell density (1000 cells/well in 2 mL) in 24-well low-adhesion plates (Corning, USA) using serum-free DMEM-F12 supplemented with 20 ng/mL EGF (PeproTech, USA), 20 ng/mL bFGF (PeproTech, USA), and B27 supplement (Invitrogen, Carlsbad, CA, USA). After 5 days of incubation (to allow spheroid formation), the cells were treated with 20, 10, 5, 2.5 or 1.25 µM of each complex. The cells were photographed after 0, 24, and 48 h of treatment using an optical microscope (Leica, DMI8). In a new set of experiments, cells were treated with 10 µM complex 1 or 5 µM complex 2 for 48 h, stained with acridine orange (1 μg/mL) plus PI (1 μg/mL) and analyzed by a Leica TCS SP8 confocal microscope (Leica Microsystems, Wetzlar, HE, Germany).

Assay [2] concerns HepG2 cells. The assay is described as follows: PARP (Asp214) cleavage by flow cytometry. Conditions: HepG2, 24 h; 8 μM complex 1, 6 μM complex 2. The protocol: To stain intracellular proteins, the cells were harvested and resuspended in 0.5-1 mL of 4% formaldehyde for 10 min at 37 °C. The tube was then placed on ice for 1 min, after which the cells were prechilled and permeabilized using a sequence of 100% (30 min) to 90% (30 min) methanol with gentle mixing. After washing with incubation buffer (0.5% bovine serum albumin in PBS), primary antibodies were added and incubated for 1 h at room temperature. Finally, the cells were washed with PBS, and flow cytometry was used to measure cell fluorescence.
(In general: Flow cytometry measures light scatter and fluorescence of single cells or particles in a stream.)

For assay [3], the system named is HepG2 cells. Briefly: Colony-forming assay. Conditions: concentration- and time-dependent; 24, 48, 72 h treatment. As for the experimental part:
A total of 500 cells were plated in 6-well plates with 4 mL of complete medium and treated with the drugs for 24, 48, or 72 h to determine clonogenic potential. The medium was subsequently replaced with fresh drug-free medium, and the plates were cultivated for 14 days. After that, the cells were fixed in methanol and stained with 0.5% crystal violet. Using an optical microscope (Nikon, TS100), the number of colonies with >50 cells was counted.

Assay [4] relates to HepG2 cells. The assay is described as follows: Mitochondrial transmembrane potential (rhodamine 123). Conditions: HepG2, 24 h. As for the experimental part: For apoptosis detection, cell viability was quantified using Annexin V-FITC/PI (FITC Annexin V Apoptosis Detection Kit I, BD Biosciences, San Jose, CA, USA) according to the manufacturer’s instructions. The cells were also stained with rhodamine 123 (5 μg/mL, Sigma Aldrich Co.) for 15 min at 37 °C in the dark to assess the mitochondrial transmembrane potential. After the cells were washed, they were incubated in saline for 30 min in the dark at 37 °C and analyzed by flow cytometry.

With `F[P-](F)(F)(F)(F)F.O=c1cc[nH]c([S][Ru+])n1.c1ccc(-c2ccccn2)nc1.c1ccc(P(c2ccccc2)c2ccccc2)cc1.c1ccc(P(c2ccccc2)c2ccccc2)cc1` [Complex 1, trans-[Ru(2TU)(PPh3)2(bipy)]PF6], in assay [1], the HepG2 tumorsphere growth result was “reduced” and the “cell death in HepG2 tumorspheres (AO/PI)” value is recorded as “caused cell death”. Further, the “PARP (Asp214) cleavage” value in assay [2] is “increased levels”. For the same compound, in assay [3], the “clonogenic viability of HepG2 cells” value is given as “significantly decreased”. Besides, in assay [4], the mitochondrial depolarization entry is listed as “Significant mitochondrial depolarization”.

On to `Cc1cc(=O)nc([S][Ru+])[nH]1.F[P-](F)(F)(F)(F)F.c1ccc(-c2ccccn2)nc1.c1ccc(P(c2ccccc2)c2ccccc2)cc1.c1ccc(P(c2ccccc2)c2ccccc2)cc1` [Complex 2, trans-[Ru(6m2TU)(PPh3)2(bipy)]PF6], for which, in assay [1], the HepG2 tumorsphere growth result is “reduced” and the “cell death in HepG2 tumorspheres (AO/PI)” value is recorded as “caused cell death”. In addition, in assay [2], the “PARP (Asp214) cleavage” value is “increased levels”. In addition, the “clonogenic viability of HepG2 cells” value in assay [3] is “significantly decreased”. The mitochondrial depolarization entry in assay [4] is “Significant mitochondrial depolarization”.
